According to PubChem BioAssay (NCI):
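GI50 is the concentration that inhibits growth by half. The concentration for full growth arrest is given as TGI.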

Experiments:
Test in all cases: NCI-60 cell line screen, 384-well format
CCRF-CEM leukemia = test system: CCRF-CEM leukemia
RXF 393 renal = test system: RXF 393 renal
UACC-257 melanoma = test system: UACC-257 melanoma
HT29 colon = test system: HT29 colon
NCI-H460 NSCLC = test system: NCI-H460 NSCLC
NCI/ADR-RES ovarian = test system: NCI/ADR-RES ovarian
NCI-H522 lung = test system: NCI-H522 lung
TK-10 renal = test system: TK-10 renal
LOX IMVI melanoma = test system: LOX IMVI melanoma
PC-3 prostate = test system: PC-3 prostate
MALME-3M melanoma = test system: MALME-3M melanoma
NCI-H23 lung = test system: NCI-H23 lung
RPMI-8226 leukemia = test system: RPMI-8226 leukemia
SK-MEL-5 melanoma = test system: SK-MEL-5 melanoma
COLO 205 colon = test system: COLO 205 colon
NCI-H226 lung = test system: NCI-H226 lung
MOLT-4 leukemia = test system: MOLT-4 leukemia
MCF7 breast = test system: MCF7 breast
SF-295 CNS = test system: SF-295 CNS
SK-MEL-28 melanoma = test system: SK-MEL-28 melanoma
A498 renal = test system: A498 renal
UO-31 renal = test system: UO-31 renal
HS 578T breast = test system: HS 578T breast
OVCAR-8 ovarian = test system: OVCAR-8 ovarian
HOP-92 NSCLC = test system: HOP-92 NSCLC
OVCAR-4 ovarian = test system: OVCAR-4 ovarian
SR leukemia = test system: SR leukemia
OVCAR-5 ovarian = test system: OVCAR-5 ovarian
HCC-2998 colon = test system: HCC-2998 colon
SF-539 CNS = test system: SF-539 CNS
SNB-19 CNS = test system: SNB-19 CNS
HOP-62 NSCLC = test system: HOP-62 NSCLC
EKVX NSCLC = test system: EKVX NSCLC
T-47D breast = test system: T-47D breast
786-0 renal = test system: 786-0 renal
KM12 colon = test system: KM12 colon
IGROV1 ovarian = test system: IGROV1 ovarian
SN12C renal = test system: SN12C renal
A549 NSCLC = test system: A549 NSCLC
SF-268 CNS = test system: SF-268 CNS
DU-145 prostate = test system: DU-145 prostate
M14 melanoma = test system: M14 melanoma
SNB-75 CNS = test system: SNB-75 CNS
SW-620 colon = test system: SW-620 colon
MDA-MB-231 breast = test system: MDA-MB-231 breast
CAKI-1 renal = test system: CAKI-1 renal
BT-549 breast = test system: BT-549 breast
MDA-MB-468 breast = test system: MDA-MB-468 breast
SK-OV-3 ovarian = test system: SK-OV-3 ovarian
MDA-MB-435 melanoma = test system: MDA-MB-435 melanoma
HL-60(TB) leukemia = test system: HL-60(TB) leukemia

Q: Which results are given for `N[C@@H]1CCCN(c2c(Br)cnc3[nH]cc(NC(=O)C4CC4)c23)C1`?
A: GI50 (CCRF-CEM leukemia): 19 nM; TGI (CCRF-CEM leukemia): 37.5 nM; GI50 (RXF 393 renal): 20.7 nM; TGI (RXF 393 renal): 45.5 nM; GI50 (UACC-257 melanoma): 368 nM; TGI (UACC-257 melanoma): > 100000 nM; GI50 (HT29 colon): 197 nM; TGI (HT29 colon): 524 nM; GI50 (NCI-H460 NSCLC): 118 nM; TGI (NCI-H460 NSCLC): 1500 nM; GI50 (NCI/ADR-RES ovarian): 51.7 nM; TGI (NCI/ADR-RES ovarian): 197 nM; GI50 (NCI-H522 lung): 1510 nM; TGI (NCI-H522 lung): 9610 nM; GI50 (TK-10 renal): 24.2 nM; TGI (TK-10 renal): 64.7 nM; GI50 (LOX IMVI melanoma): 276 nM; TGI (LOX IMVI melanoma): 1870 nM; GI50 (PC-3 prostate): 11800 nM; TGI (PC-3 prostate): 65600 nM; GI50 (MALME-3M melanoma): 23.4 nM; TGI (MALME-3M melanoma): 219 nM; GI50 (NCI-H23 lung): 21 nM; TGI (NCI-H23 lung): 69.5 nM; GI50 (RPMI-8226 leukemia): 18.7 nM; TGI (RPMI-8226 leukemia): 97.9 nM; GI50 (SK-MEL-5 melanoma): 27.7 nM; TGI (SK-MEL-5 melanoma): 128 nM; GI50 (COLO 205 colon): 269 nM; TGI (COLO 205 colon): 2690 nM; GI50 (NCI-H226 lung): 7470 nM; TGI (NCI-H226 lung): 56100 nM; GI50 (MOLT-4 leukemia): 14.1 nM; TGI (MOLT-4 leukemia): 27.8 nM; GI50 (MCF7 breast): 25.1 nM; TGI (MCF7 breast): > 100000 nM; GI50 (SF-295 CNS): 23.5 nM; TGI (SF-295 CNS): 68.8 nM; GI50 (SK-MEL-28 melanoma): 244 nM; TGI (SK-MEL-28 melanoma): > 100000 nM; GI50 (A498 renal): 12 nM; TGI (A498 renal): 31.2 nM; GI50 (UO-31 renal): 52.7 nM; TGI (UO-31 renal): > 100000 nM; GI50 (HS 578T breast): 14.3 nM; TGI (HS 578T breast): 41 nM; GI50 (OVCAR-8 ovarian): 28.7 nM; TGI (OVCAR-8 ovarian): 112 nM; GI50 (HOP-92 NSCLC): 19.2 nM; TGI (HOP-92 NSCLC): 57.7 nM; GI50 (OVCAR-4 ovarian): 17.7 nM; TGI (OVCAR-4 ovarian): 44.8 nM; GI50 (SR leukemia): 15.1 nM; TGI (SR leukemia): 29.4 nM; GI50 (OVCAR-5 ovarian): 79.4 nM; TGI (OVCAR-5 ovarian): 433 nM; GI50 (HCC-2998 colon): 15.3 nM; TGI (HCC-2998 colon): 45.5 nM; GI50 (SF-539 CNS): 17.4 nM; TGI (SF-539 CNS): 35.8 nM; GI50 (SNB-19 CNS): 220 nM; TGI (SNB-19 CNS): > 100000 nM; GI50 (HOP-62 NSCLC): 36.5 nM; TGI (HOP-62 NSCLC): 202 nM; GI50 (EKVX NSCLC): 184 nM; TGI (EKVX NSCLC): > 100000 nM; GI50 (T-47D breast): > 100000 nM; TGI (T-47D breast): > 100000 nM; GI50 (786-0 renal): 26.8 nM; TGI (786-0 renal): 78.9 nM; GI50 (KM12 colon): 57.4 nM; TGI (KM12 colon): > 100000 nM; GI50 (IGROV1 ovarian): 61.1 nM; TGI (IGROV1 ovarian): > 100000 nM; GI50 (SN12C renal): 450 nM; TGI (SN12C renal): 4270 nM; GI50 (A549 NSCLC): 303 nM; TGI (A549 NSCLC): > 100000 nM; GI50 (SF-268 CNS): 241 nM; TGI (SF-268 CNS): > 100000 nM; GI50 (DU-145 prostate): 172 nM; TGI (DU-145 prostate): > 100000 nM; GI50 (M14 melanoma): 19.1 nM; TGI (M14 melanoma): 41.7 nM; GI50 (SNB-75 CNS): 262 nM; TGI (SNB-75 CNS): 4580 nM; GI50 (SW-620 colon): 379 nM; TGI (SW-620 colon): 36400 nM; GI50 (MDA-MB-231 breast): 318 nM; TGI (MDA-MB-231 breast): 18300 nM; GI50 (CAKI-1 renal): 361 nM; TGI (CAKI-1 renal): 14200 nM; GI50 (BT-549 breast): 18.6 nM; TGI (BT-549 breast): 42.7 nM; GI50 (MDA-MB-468 breast): 20 nM; TGI (MDA-MB-468 breast): 76 nM; GI50 (SK-OV-3 ovarian): 34.2 nM; TGI (SK-OV-3 ovarian): 162 nM; GI50 (MDA-MB-435 melanoma): 30.5 nM; TGI (MDA-MB-435 melanoma): 124 nM; GI50 (HL-60(TB) leukemia): 18 nM; TGI (HL-60(TB) leukemia): 35.4 nM
